Reference: patent US20150374725A1, “METHODS AND COMPOSITIONS FOR TREATING AND PREVENTING INTESTINAL INJURY AND DISEASES RELATED TO TIGHT JUNCTION DYSFUNCTION” (PRELIEF INC., priority 2013, published 2015)

How the values were obtained:
[1] = test system: Caco-2 cells; assay: TEER during cytomix treatment; format: cell-based, human; settings: FIG. 8
Method: The effect of exogenous cytokines was measured for each parameter in the presence and absence of CGP. Both hypoxia and celiac disease are characterized by the release of cytokines by cells of the immune system. These inflammatory mediators increase monolayer permeability (M. Bayardo et al. Clin Exp Immunol.; 168(1):95-104 (2012)). Cells were grown to confluence on transwell inserts, then challenged with a mixture of the cytokines TNFα (tumor necrosis factor alpha), ILβ (interleukin beta), and IFγ (interferon gamma) (“cytomix”) in the presence or absence of increasing concentrations of CGP. At the appropriate time points, apical to basolateral mannitol flux was measured. TEER, E-Cadherin expression and media concentrations of S1P were measured in separate experiments. […] Exogenous cytokines may decrease TEER and increase mannitol flux.
Cytokines are a category of small proteins that are important in cell-cell signaling. There are many types and functions of cytokines. Three of the cytokines, TNFα (tumor necrosis factor alpha), ILβ (interleukin beta), and IFγ (interferon gamma) are involved in cell signaling during inflammation. […] First, neutrophils and other cells mediating the immune response are recruited to ischemic tissue. Second, the intestinal damage of celiac disease is dependent on inflammation. […]

[2] = test system: Caco-2 cells; assay: Baseline sphingosine 1-phosphate in media by ELISA; format: cell-based, human; settings: 24 hours incubation, increasing concentrations of CGP, FIG. 3
Method: It is believed that CGP elevates S1P concentrations by inhibiting dephosphorylation. S1P concentrations are measured in the media of Caco-2 cells using a commercially available ELISA kit (e.g., Echelon Catalog # K-1900). The S1P concentrations are measured in the media of Caco-2 cells in the presence and absence of CGP. Cells were incubated for 24 hours in the presence of increasing concentrations of CGP. The media was removed and assayed for […] by enzyme-linked immunoassay (ELISA).

[3] = test system: Caco-2 cells; assay: TEER during hypoxia; format: cell-based, human; settings: FIG. 6
Method: (§1) The effect of hypoxia on transepithelial permeability was measured for each parameter in the presence and absence of CGP. Cells were grown to confluence in normoxic conditions on transwell inserts, then transferred to a hypoxia chamber (95% N2/5% CO2) and media was changed to one sparged with 95% N2/5% CO2 and containing no glucose. Under these conditions, which simulate ischemia, the partial pressure of residual oxygen is less than 25 mm Hg (6%). Control wells contained only media; the remaining wells contained increasing concentrations of calcium glycerophosphate. TEER and mannitol flux were measured in the hypoxia chamber. E-Cadherin expression or S1P determination was determined in room air using samples prepared in the hypoxia chamber. Hypoxia may decrease TEER and S1P, increase both apical to basolateral and basolateral to apical mannitol flux without changing E-cadherin expression. These effects may be mitigated by CGP.
Hypoxia/ischemia is a state of diminished oxygen and nutrient supply such that cellular demands are not met. […]
For these studies, cells were grown on transwells until confluent, as measured by TEER values of […]. As there is some variability in baseline TEER, all data have been expressed as a % of baseline TEER. […]

[4] = test system: Caco-2 cells; assay: Baseline trans-epithelial electrical resistance (TEER); format: cell-based, human
[5] = test system: Caco-2 cells; assay: Mannitol Flux Assay under ischemia-mimicking conditions (no glucose, 1% oxygen); format: cell-based, human
Method: Mannitol Flux Assay was performed as follows. At the start of the experiment (time 0), the media on the cells was changed to one containing no glucose and no fetal calf serum, and the environment was changed from 95% […]/5% CO2, to 1% oxygen, 5% CO2 and 94% nitrogen. These conditions mimic ischemia (no food, no oxygen).
It was observed that cells responded to the ischemia conditions by letting go of non-essential functions, like maintaining tight junctions. It appears that by adding CGP, the cells were able to retain tight junction integrity for a longer period of time.
Specifically, Table 2 and FIG. 4 show the percentage increase in mannitol penetration at two and four hours after CGP administration. The movement of mannitol is inversely proportional to the tightness of the tight junctions. It can be seen that the magnitude of the increase in tightness of the tight junctions (or decrease in mannitol flux) was proportional to the concentration of CGP in the media. While it is possible that the cells are merely using the glycerol phosphate to replace glucose, this is extremely unlikely, as the effect persists even at 0.000001 molar CGP. The usual glucose concentration in the media is around 10 mM, ten times greater than the highest CGP concentration, and 10,000 times greater than the lowest concentration of CGP.

[6] = test system: Caco-2 cells; assay: Baseline mannitol flux across Caco-2 monolayers on transwell inserts; format: cell-based, human; settings: increasing concentrations of CGP, FIG. 1
Method: Experiments were conducted on Caco-2 cells, a line of heterogeneous human epithelial colorectal adenocarcinoma cells derived from a colorectal carcinoma and grown on transwell permeable inserts. Despite their origins, in culture these cells express the characteristics of small intestinal enterocytes upon prolonged culture (C. Jumarie et al. J Cell. Physiol. 149: 24-33, (1991)). They are widely used as a model of transepithelial transport in the small intestine, and are considered a model for celiac disease (G. Iacomino et al. J Agric Food Chem. 6; 61(5):1088-962013 (2013); I. Caputo et al. PLoS One. 7(9):e45209 (2012); T. Rauhavirta et al. J Clin Immunol.; 33(1):134-42 (2013)).
The TEER results are verified by measuring the flux of mannitol, a polyhydroxy alcohol, across the cell monolayer. Mannitol flux is exclusively by the paracellular route, so that its movement is inversely proportional to the tightness of the tight junctions. Flux is measured in both apical to basolateral and basolateral to apical directions. The rate of flux is used to calculate a permeability coefficient for the monolayers. […]
Baseline values were obtained for each of these parameters in unstimulated cells in the presence and absence of increasing concentrations of CGP. The time course of TEER development, as well as the appropriate concentration of CGP, was determined experimentally. […]

[7] = test system: Caco-2 cells; assay: Baseline E-cadherin expression; format: cell-based, human
Method: (3) E-Cadherin Expression:
E-cadherin is the principle protein of tight junctions. The level of E-cadherin is measured in homogenized Caco-2 cells by western blot analysis using commercially available antibodies. Since it is possible that E-cadherin might be expressed as a protein, but sequestered away from the cell membrane, surface E-cadherin is also measured using either flow cytometry or fluorescent microscopy. The ratio of surface to total E-cadherin is calculated. The expression levels of E-cadherin are measured in Caco-2 cells in the presence and absence of CGP. The expression levels of other proteins of tight junctions in Caco-2 cells in the presence or absence of CGP can also be measured using methods known in the art in view of the present disclosure.

[8] = test system: Caco-2 cells; assay: Transepithelial mannitol flux induced by cytomix; format: cell-based, human; settings: cytomix plus CGP, FIG. 7
Method: The effect of exogenous cytokines was measured for each parameter in the presence and absence of CGP. […] Cells were grown to confluence on transwell inserts, then challenged with a mixture of the cytokines TNFα (tumor necrosis factor alpha), ILβ (interleukin beta), and IFγ (interferon gamma) (“cytomix”) in the presence or absence of increasing concentrations of CGP. At the appropriate time points, apical to basolateral mannitol flux was measured. TEER, E-Cadherin expression and media concentrations of S1P were measured in separate experiments.

[9] = test system: Caco-2 cells; assay: Apical to basolateral [14C]mannitol flux during hypoxia; format: cell-based, human; settings: FIG. 5
Method: as §1
Hypoxia/ischemia is a state of diminished oxygen and nutrient supply such that cellular demands are not met. […] It was hypothesized that the increased transepithelial permeability is the consequence of intestinal hypoxia (itself a consequence of diversion of blood flow from the gut during heavy exercise), and that the permeability might be alleviated by CGP treatment. […]

[10] = Solubility in water; format: physicochemical
[11] = test system: cultured enterocytes; settings: cited from earlier work

Question: For `O=P([O-])([O-])OCC(O)CO.[Ca+2]` (centres unmarked) [CGP, 1,2,3-propanetriol, mono(dihydrogen phosphate) calcium salt (1:1)], which “CGP effect on TEER” value ([1]; 24 hours) is on record?
Answer: all CGP effect was lost

Question: What about the “TEER versus cytomix alone and control” value ([1]; ten hours, all CGP treated groups except 1 μM) of the same compound?
Answer: significantly greater than cytomix alone and not different from control

Question: What about the “effect on sphingosine 1-phosphate concentrations in the media” value [2] of the same compound?
Answer: does not appear to have any effect

Question: What about the “effect on TEER during hypoxia (% of baseline TEER)” value [3] of the same compound?
Answer: preserved TEER in a concentration dependent manner

Question: What about the “time dependence of the effect on TEER during hypoxia” value [3] of the same compound?
Answer: by five hours there was no longer a discernible effect

Question: And the “persistence of the CGP effect on baseline TEER” value ([4]; FIG. 2)?
Answer: gone by four hours

Question: What about the “effect on the citrate-induced reduction in baseline TEER” value ([4]; FIG. 2, noticeable at two hours) of the same compound?
Answer: prevented

Question: What about the “mannitol penetration, Disintegrations Per Minute” value ([5]; CGP 0.000001 M, 2 hours) of the same compound?
Answer: 77.04 Disintegrations Per Minute

Question: And the “mannitol penetration, Disintegrations Per Minute” value ([5]; CGP 0.000001 M, 4 hours)?
Answer: 275.0632 Disintegrations Per Minute

Question: And the “mannitol penetration, Disintegrations Per Minute” value ([5]; CGP 0.00001 M, 2 hours)?
Answer: 67.95 Disintegrations Per Minute

Question: And the “mannitol penetration, Disintegrations Per Minute” value ([5]; CGP 0.00001 M, 4 hours)?
Answer: 195.9237 Disintegrations Per Minute

Question: What about the “mannitol penetration, Disintegrations Per Minute” value ([5]; CGP 0.0001 M, 2 hours) of the same compound?
Answer: 50.47 Disintegrations Per Minute

Question: What about the “mannitol penetration, Disintegrations Per Minute” value ([5]; CGP 0.0001 M, 4 hours) of the same compound?
Answer: 188.7996 Disintegrations Per Minute

Question: And the “mannitol penetration, Disintegrations Per Minute” value ([5]; CGP 0.001 M, 2 hours)?
Answer: 23.11 Disintegrations Per Minute

Question: What about the “mannitol penetration, Disintegrations Per Minute” value ([5]; CGP 0.001 M, 4 hours) of the same compound?
Answer: 150.2845 Disintegrations Per Minute

Question: What about the “lowest CGP concentration at which the effect on mannitol penetration persists” value ([5]; ischemia-mimicking conditions, Table 2 and FIG. 4) of the same compound?
Answer: 1000 nM

Question: What about the “effect on baseline mannitol flux across the barrier” value [6] of the same compound?
Answer: no significant effect

Question: And the “effect on E-Cadherin expression” value [7]?
Answer: may increase, but most likely does not change

Question: And the “effect on cytomix-induced increase in mannitol permeability” value [8]?
Answer: delayed the permeability increase in a concentration-dependent manner

Question: What about the “time dependence of the effect on hypoxia induced mannitol flux” value [9] of the same compound?
Answer: diminished by four hours and absent by five hours

Question: What about the “effect on hypoxia induced mannitol flux” value ([9]; concentration dependent) of the same compound?
Answer: significantly reduced

Question: What about the solubility in water [10] of the same compound?
Answer: approximately 1 gram in 100 mL

Question: For `CCCCCCCCCCCCC/C=C/[C@@H](O)[C@@H](N)COP(=O)(O)O` [S1P, sphingosine-1-phosphate], which “effect on tightness of existing tight junctions” value [11] is on record?
Answer: increases
